The first data set concerns THP-1 macrophages. In words: Effect of compounds on host cell viability (MTT). The data set is classed as cell-based. The note with it: read-out: 24h LC50; THP1 macrophages, 24-hour incubation, MTT assay (Supplemental Table 2). The method, then: The cells were cultured at 37C, 5% CO2 in RPMI medium (ATCC) supplemented with 10% FBS, 1% Penicillin/Streptomycin and 0.05 mM of β-mercaptoethanol. Cells were used in experiments up to passage 10.
Effect of the compounds on THP-1 cell viability measured using thiazolyl blue tetrazolium bromide which measures cell metabolic activity (MTT). THP-1 cells were seeded in a 96 well plate (25,000 cells/well) overnight then differentiated with 150 nM phorbol 12-myristate 13-acetate (PMA) over 72 hours. Macrophages were then treated with compounds resuspended in RPMI media (1- 50 μM) for 24 hours. Media was replaced with thiazolyl blue tetrazolium bromide solubilized in RPMI media (0.5 mg/mL) and incubated at 37°C for 2 hours. The reduced formazan crystals were solubilized with isopropyl alcohol and the absorbance of the resulting solution was measured at 560 nm with a background subtraction at 670 nm. […] This process was repeated with a 72-hr incubation and extended concentration range (1 - 300 μM) for select compounds.
In general terms: Formazan colour is commonly taken as a measure of viable cells.
Regarding `FC(F)(F)c1ccc(-c2ccc(-c3cc(C(F)(F)F)nn3-c3ccc(NC4CNC4)cc3)cc2)cc1` [Compound 3], the CC50 came out at 11 µM.

Take `CC(=O)c1ccc(-c2ccc(C(F)(F)F)cc2)cc1` [Compound 5]: the CC50 came to 13.3 µM.

Regarding `Oc1ccc(CNC2CCN(c3ccc(-n4nc(C(F)(F)F)cc4-c4ccc(-c5ccc(C(F)(F)F)cc5)cc4)cc3)C2)cc1` (stereo not drawn) [Compound 18], the CC50 was determined as 24.5 µM.

Take `FC(F)(F)c1ccc(-c2ccc(-c3cc(C(F)(F)F)nn3-c3ccc(OC4CCNCC4)cc3)cc2)cc1` [Compound 34]: the CC50 was above 50 µM.

For the compound `FC(F)(F)c1cc(-c2ccc(C#CC3CC3)cc2)n(-c2ccc(N3CCNCC3)cc2)n1` [Compound 42], the CC50 was found to be 0.7 µM.

Take `CC(C)C#Cc1ccc(-c2cc(C(F)(F)F)nn2-c2ccc(N3CCNCC3)cc2)cc1` [Compound 45]: the CC50 was found to be 3.2 µM.

`FC(F)(F)c1cn(-c2ccc(N3CCNCC3)cc2)c(-c2ccc(Cl)cc2)n1` [Compound 51]: the CC50 was 25.7 µM.

Turning to `Cc1cc(C(F)(F)F)nn1-c1ccc(Br)cc1` [Compound 275], the CC50 is above 50 µM.

Turning to `FC(F)(F)c1cc(C(F)(F)F)n(-c2ccc(Br)cc2)n1` [Compound 276], the CC50 was found to be 32.2 µM.

Take `CC(C)c1cc(C(F)(F)F)nn1-c1ccc(Br)cc1` [Compound 277]: the CC50 was above 50 µM.

As for `Fc1cccc([C@@H]2CCCN2)c1` [Compound 278], the CC50 is above 50 µM.

With `FC(F)c1cc(-c2ccc(-c3ccc(C(F)(F)F)cc3)cc2)n(-c2ccc(Br)cc2)n1` [Compound 279], the CC50 was above 50 µM.

Turning to `CCc1cc(-c2ccc(-c3ccc(C(F)(F)F)cc3)cc2)n(-c2ccc(Br)cc2)n1` [Compound 280], the CC50 was above 50 µM.

Take `Cc1cc(C(F)(F)F)n(-c2ccc(NC3CCN(C(=O)OC(C)(C)C)C3)cc2)n1` (stereo not drawn) [Compound 282]: the CC50 is above 50 µM.

`CC(C)(C)OC(=O)N1CCC(Nc2ccc(-n3nc(C(F)(F)F)cc3C(F)(F)F)cc2)C1` (stereo not drawn) [Compound 283]: the CC50 was above 50 µM.

In the case of `Cc1cc(C(F)(F)F)n(-c2ccc(NC3CCNC3)cc2)n1` (stereo not drawn) [Compound 284], the CC50 is above 50 µM.

With `Fc1cccc(CNC2CCN(c3ccc(-n4nc(C(F)(F)F)cc4C4CCCCC4)cc3)C2)c1` (stereo not drawn) [Compound 285], the CC50 was above 50 µM.

As to `CC(C)c1cc(C(F)(F)F)nn1-c1ccc(NC2CCN(C(=O)OC(C)(C)C)C2)cc1` (stereo not drawn) [Compound 286], the CC50 was above 50 µM.

`N#Cc1ccc(-n2cc(C(F)(F)F)nc2-c2ccc(Br)cc2)c(F)c1` [Compound 291]: the CC50 is above 50 µM.

In the case of `FC(F)(F)c1ccc(-c2nc(C(F)(F)F)cn2CC2CCNC2)cc1` (stereo not drawn) [Compound 292], the CC50 is above 50 µM.

`OCCn1nc(C(F)(F)F)cc1-c1ccc(C(F)(F)F)cc1` [Compound 293]: the CC50 is above 50 µM.

Turning to `FC(F)(F)c1ccc(-c2cc(C(F)(F)F)nn2CCNC2CCN(Cc3ccccc3)C2)cc1` (stereo not drawn) [Compound 294], the CC50 was found to be 28.2 µM.

On to `NCC(=O)NCCn1cc(C(F)(F)F)nc1-c1ccc(C(F)(F)F)cc1` [Compound 295], for which the CC50 was above 50 µM.

With `NCC(=O)Nc1ccc(-n2cc(C(F)(F)F)nc2-c2ccccc2C(F)(F)F)cc1` [Compound 297], the CC50 is above 50 µM.

Regarding `NCC(=O)Nc1ccc(-n2cc(C(F)(F)F)nc2-c2ccc(OC(F)(F)F)cc2)cc1` [Compound 299], the CC50 is 31.6 µM.

Take `Cc1cc(C(F)(F)F)nn1-c1ccc(NC2CCNC2)cc1` (stereo not drawn) [Compound 313]: the CC50 is above 50 µM.

For the compound `CCc1cc(C(F)(F)F)nn1-c1ccc(Br)cc1` [Compound 316], the CC50 is above 50 µM.

On to `CCc1cc(C(F)(F)F)nn1-c1ccc(NC2CCN(C(=O)OC(C)(C)C)C2)cc1` (stereo not drawn) [Compound 317], for which the CC50 is above 50 µM.

`NC(=O)CN1c2ccccc2C2CCCC21` (stereo not drawn) [Compound 320]: the CC50 was above 50 µM.

As for `Fc1cccc(CN2CCC(Nc3ccc(-n4nc(C(F)(F)F)cc4C4CCCCC4)cc3)CC2)c1` [Compound 322], the CC50 is above 50 µM.

As for `NCC(=O)Nc1ccc(-n2cc(C(F)(F)F)nc2C2CCCCC2)cc1` [Compound 327], the CC50 is above 50 µM.

With `CC(C)(C)c1nc(C(F)(F)F)cn1-c1ccc(Br)cc1` [Compound 329], the CC50 is above 50 µM.

On to `FC(F)(F)c1cn(-c2ccc(NC3CCNC3)cc2)c(-c2ccncc2)n1` (stereo not drawn) [Compound 333], for which the CC50 was above 50 µM.

In the case of `O=[N+]([O-])c1ccc(-n2nc(C3CCCCC3)cc2C(F)(F)F)cc1` [Compound 335], the CC50 was above 50 µM.

Take `Nc1ccc(-n2nc(C(F)(F)F)cc2C2CCCCC2)cc1` [Compound 338]: the CC50 was above 50 µM.

Turning to `CC(C)(C)OC(=O)NCC(=O)Nc1ccc(-n2nc(C(F)(F)F)cc2C2CCCCC2)cc1` [Compound 340], the CC50 was above 50 µM.

For the compound `O=C(CNCc1cccc(F)c1)Nc1ccc(-n2nc(C(F)(F)F)cc2C2CCCCC2)cc1` [Compound 352], the CC50 was 29.3 µM.

In the case of `N#Cc1ccc(CN2CCC(Nc3ccc(-n4nc(C(F)(F)F)cc4C4CCCCC4)cc3)C2)cc1` (stereo not drawn) [Compound 358], the CC50 was 13.2 µM.

Regarding `COc1ccc(-n2nc(C(F)(F)F)cc2C2CCCCC2)cc1` [Compound 363], the CC50 was above 50 µM.

On to `CC(C)(C)OC(=O)N1CCC(Oc2ccc(-n3nc(C(F)(F)F)cc3C3CCCCC3)cc2)CC1` [Compound 367], for which the CC50 is above 50 µM.

Turning to `Fc1cccc(CN2CCC(Oc3ccc(-n4nc(C(F)(F)F)cc4C4CCCCC4)cc3)CC2)c1` [Compound 372], the CC50 is above 50 µM.

As for `Oc1ccc(CN2CCC(Oc3ccc(-n4nc(C(F)(F)F)cc4C4CCCCC4)cc3)CC2)cc1` [Compound 374], the CC50 amounted to 8.2 µM.

Regarding `Fc1cccc(CN2CCC(Oc3ccc(-n4nc(C(F)(F)F)cc4C4CCCCC4)cc3)C2)c1` (stereo not drawn) [Compound 376], the CC50 was above 50 µM.

As to `FC(F)(F)c1cc(C2CCCCC2)n(-c2ccc(OC3CCN(Cc4ccccc4)C3)cc2)n1` (stereo not drawn) [Compound 378], the CC50 was above 50 µM.

In the case of `N#Cc1ccc(CN2CCC(Nc3ccc(-n4nc(C(F)(F)F)cc4C4CCCCC4)cc3)CC2)cc1` [Compound 389], the CC50 is above 50 µM.

With `CCOC(=O)CNc1ccc(-n2cc(C(F)(F)F)nc2-c2ccc(C(F)(F)F)cc2)cc1` [Compound 403], the CC50 is above 50 µM.

Take `O=C(CO)Nc1ccc(-n2cc(C(F)(F)F)nc2-c2ccc(C(F)(F)F)cc2)cc1` [Compound 404]: the CC50 was above 50 µM.

As for `NC(=O)CNc1ccc(-n2cc(C(F)(F)F)nc2-c2ccc(C(F)(F)F)cc2)cc1` [Compound 405], the CC50 is above 50 µM.

`NCC(=O)Nc1ccc(-n2ccnc2-c2ccc(C(F)(F)F)cc2)cc1` [Compound 406]: the CC50 was above 50 µM.

Regarding `CCCN(CCC)CCc1c[nH]c2ccccc12` [Compound 411], the CC50 was above 50 µM.

In the case of `FC(F)(F)c1cc(C2CCCCC2)n(-c2ccc(N3CCC(OCc4ccccc4)C3)cc2)n1` (stereo not drawn) [Compound 412], the CC50 was above 50 µM.

As to `N#Cc1ccc(COC2CCN(c3ccc(-n4nc(C(F)(F)F)cc4C4CCCCC4)cc3)C2)cc1` (stereo not drawn) [Compound 413], the CC50 is above 50 µM.

Turning to `FC(F)(F)c1cc(C2CCCCC2)n(-c2ccc(N3CCC(OCc4ccccc4)CC3)cc2)n1` [Compound 414], the CC50 was above 50 µM.

For `Fc1cccc(COC2CCN(c3ccc(-n4nc(C(F)(F)F)cc4C4CCCCC4)cc3)C2)c1` (stereo not drawn) [Compound 415], the CC50 is above 50 µM.

Take `CC(=O)NCCN1CCC(Oc2ccc(-n3nc(C(F)(F)F)cc3C3CCCCC3)cc2)CC1` [Compound 417]: the CC50 is 24.4 µM.

As to `NCCNC1CCN(c2ccc(-n3nc(C(F)(F)F)cc3C3CCCCC3)cc2)CC1` [Compound 418], the CC50 amounted to 12.6 µM.

With `CC(=O)NCCCOc1ccc(CN2CCC(Oc3ccc(-n4nc(C(F)(F)F)cc4C4CCCCC4)cc3)CC2)cc1` [Compound 430], the CC50 is 16.5 µM.

As for `FC(F)(F)c1ccc(-c2cnnn2-c2ccc(NC3CCNCC3)cc2)cc1` [Compound 434], the CC50 was found to be 24.6 µM.

The test system of the next data set is intracellular L. donovani amastigotes. In words: Luminescent-based evaluation of intracellular anti-leishmanial activity in THP-1 macrophages. The data set is classed as cell-based, Leishmania donovani. To be noted: intracellular Leishmania donovani in THP1 macrophages, luminescence assay (Supplemental Table 2); read-out: Lum IC50. The method, then:
Luminescent strains, L. donovani LV82 expressing firefly luciferase (a kind gift from Dr. Abhay Satoskar, Ohio State University) and L. mexicana (NR-51210, ATCC) expressing renilla luciferase were used to evaluate the effect of the compounds in intracellular and extracellular conditions. Wild-type L. donovani LV82 (ATCC) were used for Giemsa staining based experiments. All parasites were cultured at 25°C and 5% CO2 in M199 media (Corning) supplemented with 10% FBS, 1% penicillin/streptomycin, and hemin (0.01 mg/mL), and used in experiments up to passage 15.
THP-1 cells were seeded in a 96 well plate (25,000 cells/well) overnight then differentiated with 150 nM phorbol 12-myristate 13-acetate (PMA) over 72 hours (Supplemental Figure 1). […] Briefly, promastigotes of a known cell density were resuspended in RPMI media (with 10% FBS, 1% P/S and 0.05 mM β-mercaptoethanol) and incubated with adhered THP-1 cells over 18 hours. After infection, cells were washed three times with fresh media to remove extracellular promastigotes.
Infected macrophages were then treated with compounds solubilized in DMSO ranging from 0.1-10 μM in concentrations. After 72 hours of treatment, the viability of the amastigotes within macrophages was determined using Promega firefly luminescence assay (Cat E1500) or Pierce Renilla luciferase assay (Cat 16166) for L. donovani and L. mexicana strains, respectively. Briefly, media was removed, and cells were lysed with the assay lysis buffer. The luciferase substrate was then incubated with the lysed cells for 10 min at room temperature and luminescence of live Leishmania was measured in a white opaque 96 well plate using a Biotek plate reader.
As usually defined, the IC50 is the concentration needed to halve the response being measured. For `FC(F)(F)c1ccc(-c2ccc(-c3cc(C(F)(F)F)nn3-c3ccc(NC4CNC4)cc3)cc2)cc1` [Compound 3], the IC50 was 1.8 µM.

For the compound `CC(=O)c1ccc(-c2ccc(C(F)(F)F)cc2)cc1` [Compound 5], the IC50 turned out to be 2.3 µM.

For the compound `Oc1ccc(CNC2CCN(c3ccc(-n4nc(C(F)(F)F)cc4-c4ccc(-c5ccc(C(F)(F)F)cc5)cc4)cc3)C2)cc1` (stereo not drawn) [Compound 18], the IC50 was 4 µM.

For `FC(F)(F)c1ccc(-c2ccc(-c3cc(C(F)(F)F)nn3-c3ccc(OC4CCNCC4)cc3)cc2)cc1` [Compound 34], the IC50 turned out to be 6 µM.

For `FC(F)(F)c1cc(-c2ccc(C#CC3CC3)cc2)n(-c2ccc(N3CCNCC3)cc2)n1` [Compound 42], the IC50 is 4.2 µM.

For the compound `CC(C)C#Cc1ccc(-c2cc(C(F)(F)F)nn2-c2ccc(N3CCNCC3)cc2)cc1` [Compound 45], the IC50 is 3.7 µM.

As for `FC(F)(F)c1cn(-c2ccc(N3CCNCC3)cc2)c(-c2ccc(Cl)cc2)n1` [Compound 51], the IC50 came out at 8.2 µM.

As for `Nc1ccc(-n2cc(C(F)(F)F)nc2-c2ccc(-c3ccc(C(F)(F)F)cc3)cc2)cc1` [Compound 76], the IC50 is above 10 µM.

The record behind these values is paper doi:10.1101/2025.11.04.686469, “Discovery of Host-Directed Small Molecules with Broad Anti-Leishmanial Efficacy” (bioRxiv, 2025).
